Article PMC10175255, “The cell wall lipoprotein CD1687 acts as a DNA binding protein during deoxycholate-induced biofilm formation in Clostridioides difficile” (NPJ Biofilms and Microbiomes, 2023)

Molecular target: T1, CD1687 (Clostridioides difficile, UniProt Q186P2)
T1 construct: gene CD630_16870; signal peptide removed, hexahistidine tag kept, expressed in E. coli Bli5 from a pET20-derived plasmid, Ni-NTA purified
Test: surface plasmon resonance (Biacore T200), His-tagged protein captured on Ni-NTA chip
Format: binding

T1 sequence (Q186P2 entry or part of it): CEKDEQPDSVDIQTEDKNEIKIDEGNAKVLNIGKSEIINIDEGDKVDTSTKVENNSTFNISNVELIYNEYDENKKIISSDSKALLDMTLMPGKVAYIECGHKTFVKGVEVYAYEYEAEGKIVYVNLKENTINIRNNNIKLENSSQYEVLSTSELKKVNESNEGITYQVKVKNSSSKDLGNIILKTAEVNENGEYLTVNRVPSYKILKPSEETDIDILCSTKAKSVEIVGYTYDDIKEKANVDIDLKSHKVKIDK

With C[C@H](CCC(=O)O)[C@H]1CC[C@H]2[C@@H]3CC[C@@H]4C[C@H](O)CC[C@]4(C)[C@H]3C[C@H](O)[C@]12C [deoxycholate] the Kd was 1.65 ± 0.58 mM.
